Results on 1 compound are retold here after US11865098B1, “Methods and compositions for treating excessive sleepiness” (Axsome Malta Ltd., priority 2017, dated 2024).

Test [1] relates to adults with OSA and excessive sleepiness. As to the kind of experiment: Maintenance of Wakefulness Test (MWT), phase 3 randomized withdrawal study in OSA. The format is in vivo, human. As to conditions: for MWT mean sleep latency after 4 weeks of APC treatment: randomized patients, mITT, 75, 150 or 300 mg once daily. The procedure:
The MWT is an objective test used to measure how alert a subject is during the day. The test consists of four sleep trials with two hours in between the trials. The first trial is performed 1.5-3 hours after the subject's normal wake-up time. Sensors are placed on the head, face, and chin to detect when the subject is asleep and awake during the test. The subject sits quietly in bed with his or her back and head supported by a pillow and is asked to sit still and look straight ahead while trying to stay awake as long as possible. Each trial lasts 40 minutes or until the subject is asleep for 90 seconds. Between trials, the subject stays out of bed and occupies himself or herself to remain awake. Falling asleep in an average of less than eight minutes is considered abnormal. About 40-60% of subjects with normal sleep stay awake for the entire 40 minutes of all four trials.
The study was a double-blind, placebo-controlled, enriched, randomized withdrawal design (FIG. 1). In the Titration Phase (weeks 1-2), patients started on a once-daily dose of APC 75 mg and could be titrated up or down every 3 days to reach a maximum tolerated dose of APC 75, 150, or 300 mg. In the Stable-Dose Phase (weeks 3-4), patients continued to receive the dose that they were titrated to in the Titration Phase for 2 weeks. […]
Efficacy was based on change from week 4 to 6 on the co-primary endpoints of MWT and ESS and percentage of patients reported as improved on the PGI-C and Clinician Global Impression of Change (CGI-C); assessed on a 7-point scale from 1 (very much improved) to 7 (very much worse).
MWT and ESS data were analyzed using a mixed-effect model repeated measures (MMRM); PGI-C and CGI-C were evaluated using a chi-square test. […] Safety and tolerability were evaluated based on treatment-emergent adverse events (TEAEs), vital signs, and laboratory values.

Test [2] relates to adult patients with OSA and ES. As to the kind of experiment: FOSQ-10, 12-week parallel study in OSA. The test is classed as in vivo, human. The procedure:
The study was a 12-week, double-blind, placebo-controlled, parallel design study as described in greater detail in Example 1 (Schweitzer et al., Sleep 40(Abstract Supplement):A237. Abstract 0641 (2017)). Patients were randomized (1:1:2:2:2) to APC 37.5, 75, 150, 300 mg, or placebo for 12 weeks, and were stratified by adherence or non-adherence with primary OSA therapy (adherent definition was use for ≥4 hours per night on >70% of nights). Two patient-reported measures were included as secondary efficacy outcomes to evaluate the effects of APC on functional status and work productivity and activity impairment at baseline and weeks 1, 4, 8, and 12. The Functional Outcomes of Sleep questionnaire short version (FOSQ-10) (Chasens et al., Sleep 32(7):915 (2009)) evaluated the effects of ES on functioning. The Work Productivity and Activity Impairment questionnaire for Specific Health Problems (WPAI:SHP) (Reilly et al., Pharmacoeconomics 4(5):353 (1993); Reilly, Work Productivity and Activity Impairment Questionnaire: Specific Health Problem V2.0 (WPAI: SHP). www.reillyassociates.net/WPAI_SHP) evaluated work productivity impairment among employed patients and overall activity impairment outside of work among all patients for the past 7 days. Four outcomes are available from the WPAI:SHP: Absenteeism (percent work time missed due to health); Presenteeism (percent impairment while working due to health); Percent overall work impairment (calculated from absenteeism and presenteeism); and Percent activity impairment due to health. The FOSQ-10 was evaluated as change over time compared with placebo (least squares (LS) mean); the 4 WPAI outcomes were evaluated at week 12 compared to placebo. Efficacy analyses were based on the modified intent-to-treat population (mITT) and there was no multiplicity adjustment for the FOSQ-10 or WPAI:SHP. Safety and tolerability were assessed based on treatment-emergent adverse events (TEAEs), vital signs, electrocardiogram test, physical exams, Columbia-Suicide Severity Rating Scale, and laboratory tests in the safety population.

Consider `NC(=O)OC[C@H](N)Cc1ccccc1` [JZP-110, (R)-2-amino-3-phenylpropyl carbamate], for which, in test [1] (Double-Blind Withdrawal Phase, patients who remained on JZP-110, P<0.0001 vs switched to placebo), the “Change in mean MWT sleep latency from week 4 to week 6” value was -1.0 min. Further, the “MWT mean sleep latency after 4 weeks of APC treatment” value in test [1] (group increased from 12.3 at baseline) came out at 29.0 min; in test [1] (group increased from 13.1 at baseline), 31.7 min. Also, the “FOSQ-10 scores at week 12” value in test [2] (37.5 to 300 mg, mITT) is listed as “dose dependently increased FOSQ-10 scores”. In test [2] (150 and 300 mg doses), the “FOSQ-10, time at which improvements were observed” value is recorded as “as early as week 1”. Further, the “FOSQ-10 scores at week 12, effect relative to placebo” value in test [2] (150 and 300 mg doses) was “statistically significant effects”.
